The values that follow come from US20130089510A1, “OTIC COMPOSITIONS FOR THE TREATMENT OF INFECTIONS OF THE INTERNAL AND EXTERNAL EAR IN MAMMALS” (Foresight Biotherapeutics, Inc., priority 2008, published 2013).

Series [1] is described as follows: Reactivity/compatibility of PVP-I with other active ingredients.
Another series relates to external ear. The note with it: in vivo; cited from earlier work.

“1-Vinyl-2-pyrrolidinone polymers, iodine complex [PVP-I]”: the “available iodine in the PVP-I complex” value in series [1] (with Ketorolac, depending on the ratio between Ketorolac and PVP-I) was “reduced significantly”. The “concentration known to be safe for use in the external ear (and inner ear through a ruptured tympanic membrane)” value in the series with external ear is reported as “up to 10.0 % (w/w, aqueous)”. Regarding `O=C(c1ccccc1)c1ccc2n1CCC2C(=O)O` (stereo not drawn) [Ketorolac], the “consumption of the agent on reaction with PVP-I” value in series [1] (mixed with PVP-I) is reported as “completely consumed”.
